Measurements: patent US8586552B2, “4,6-substituted 2,5-dideoxystreptamine aminoglycoside antibiotics” (SelectX Pharmaceuticals, Inc., priority 2012, dated 2013)
In brackets after ≈: the same amount, converted by molar mass.

Experiments:
[1] = test system: Pseudomonas aeruginosa (Pae, PAWT, ATCC #27853); assay: MIC against Pseudomonas aeruginosa reference strain PAWT; format: cell-based; details: Pseudomonas aeruginosa wild type PAWT
[2] = test system: Klebsiella pneumoniae (Kpn, KPWT, ATCC #700603); assay: MIC against Klebsiella pneumoniae reference strain KPWT; format: cell-based; details: Klebsiella pneumonia KPWT, Table 5 (unit not given); in µg/mL
[3] = test system: Pseudomonas aeruginosa PR1 (clinical isolate with intermediate aminoglycoside resistance); assay: MIC against Pseudomonas aeruginosa clinical isolate PR1; format: cell-based; details: Pseudomonas aeruginosa resistant strain PR1
[4] = test system: Pseudomonas aeruginosa PR2 (clinical isolate with intermediate aminoglycoside resistance); assay: MIC against Pseudomonas aeruginosa clinical isolate PR2; format: cell-based; details: Pseudomonas aeruginosa resistant strain PR2
[5] = test system: Klebsiella pneumoniae KR1 (clinical isolate with intermediate aminoglycoside resistance); assay: MIC against Klebsiella pneumoniae clinical isolate KR1; format: cell-based; details: Klebsiella pneumonia KR1; in µg/mL
From the text: (§1) Klebsiella pneumoniae (Kpn) and Escherichia coli (Eco) are gram-negative (like Pae), enteric pathogens with increasing clinical relevance. Many clinical isolates of Kpn and Eco harbor extended-spectrum beta-lactamases and are no longer sensitive to most beta-lactam antibiotics. We acquired clinical isolates of Klebsiella pneumoniae and Escherichia coli (Micromyx LLC, Kalamazoo, Mich.) and used this panel to test compounds for anti-enteric activity.

[6] = test system: Klebsiella pneumoniae KR2 (clinical isolate with intermediate aminoglycoside resistance); assay: MIC against Klebsiella pneumoniae clinical isolate KR2; format: cell-based; details: Klebsiella pneumonia KR2
From the text: as §1

[7] = test system: Klebsiella pneumoniae KR3 (clinical isolate possessing high-level aminoglycoside resistance); assay: MIC against Klebsiella pneumoniae clinical isolate KR3; format: cell-based; details: Klebsiella pneumonia KR3; in µg/mL
From the text: as §1

[8] = test system: fifty resistant contemporary clinical isolates of Klebsiella pneumoniae; assay: MIC90 against panel of resistant clinical isolates of Klebsiella pneumoniae; format: cell-based; details: stringent panel of resistant clinical isolates, Table 5
From the text: Using this stringent Klebsiella pneumoniae panel, we tested a subset of compounds of the invention.

[9] = test system: Acinetobacter baumannii AB1; assay: MIC against Acinetobacter baumannii clinical isolate AB1; format: cell-based
From the text: (§2) Acinetobacter baumannii is another clinically important and very challenging gram negative pathogen. Members of the Acinetobacter genus, including baumannii, have a remarkable ability to upregulate and acquire resistance determinants. Coupled with its ability to survive for prolonged periods in a hospital environment, A. baumannii is an emerging threat for healthcare institutions globally. We acquired clinical isolates of Acinetobacter baumannii and used this panel to test compounds for anti-Acinetobacter activity. We first tested reference AGs against our panel of Aba strains.

[10] = test system: Acinetobacter baumannii AB3; assay: MIC against Acinetobacter baumannii clinical isolate AB3; format: cell-based
From the text: as §2

[11] = test system: resistant strain of P. aeruginosa (P. aeruginosa 6294 MLP-3); assay: Rat neutropenic thigh model against resistant P. aeruginosa; format: in vivo
Procedure: The compound identified as SXP 2523 was further tested in vivo against a resistant strain of P. aeruginosa. Twenty male Sprague Dawley rats were rendered neutropenic by treatment with cyclophosphamide on day −4 and day −1 with 100 mg/kg and 75 mg/kg, respectively. Rats were infected with P. aeruginosa 6294 MLP-3, via injection into the right thigh muscle of 0.1 mL per rat. Two hours post infection rats were treated intravenously with either SXP-2523 or amikacin in a total dose of 10 or 60 mg/kg, respectively. The test article and control agent were delivered at 2, 4, and 6 hours post infection. Five rats were treated with each drug concentration. One group of five rats were euthanized at initiation of treatment and thigh CFUs were determined (T=Rx). Twenty-four hours post infection; rats were euthanized by CO2 inhalation. The right thigh muscles of the rats were aseptically removed, weighed, homogenized, serially diluted, and plated on BHI medium. The plates were incubated overnight at 37° C. in 5% CO2. CFU per gram of thigh was calculated by enumerating the plated colonies then adjusting for serial dilutions and the weight of the thigh.

[12] = resistant P. aeruginosa, Log CFU/thigh, total dose 10 mg/kg SXP-2523 or 60 mg/kg amikacin iv

With `NCCCNCC1OC(OC2C(NC(=O)C(O)CCN)CC(N)C(OC3OC(CN)C(O)CC3N)C2F)C(O)C(N)C1O` (centres unmarked) [SXP 2523] the “MIC PAWT” value [1] was 0.25 µg/mL (≈ 0.399 µM), the “MIC KPWT” value [2] was 0.5-1 and the “MIC PR1” value [3] was 1 to 2 µg/mL. For the same molecule, the “MIC PR2” value [4] was 0.5 µg/mL (≈ 0.798 µM), the “MIC KR1” value [5] was 0.5-1 and the “MIC KR2” value [6] was 0.5-1. For the same molecule, the “MIC KR3” value [7] was 1, the MIC90 Klebsiella pneumonia [8] was 1 µg/mL (≈ 1.6 µM) and the “MIC AB1” value [9] was 2 to 4 µg/mL. The “MIC AB3” value [10] was 4 to 8 µg/mL, the “efficacy against amikacin-resistant P. aeruginosa in animal model” value ([11]; rat neutropenic thigh model, total dose 10 mg/kg iv) was “effective against amikacin-resistant P. aeruginosa” and the “Change from 24 hr. control” value [11, 12] was −4.94. The “Change from T = Rx controls” value [11, 12] was −1.78 and the “Log CFU/thigh” value ([11]; resistant P. aeruginosa, neutropenic male Sprague Dawley rats, iv at 2, 4, 6 h post infection, total dose 10 mg/kg SXP-2523 or 60 mg/kg amikacin, 24 h post infection) was 1.71 Log CFU/thigh.
